Assays:
[1] = Plasma Stability Assay (human plasma); assay type: in vitro ADME; conditions: both sexes; pooled human plasma, heparin, final conc. 2 μM, 37° C., 0-120 min; read-out: Human Plasma Stability t1/2
Method: This Example illustrates that exemplary compounds of the present invention is cleavage in human plasma.
(§1) Test Compounds and Stock Solutions: Stock Conc. 10 mM; Final Conc. 2 μM
(§2) Test Compound and Control Working Solution Preparation:
• Test compound intermediate solution: 10 μL of compound stock solution (10 mM in dimethyl sulfoxide (DMSO)) were diluted with 90 μL of DMSO (intermediate solution concentration: 1 mM, 100% DMSO) • Control intermediate solution: 10 μL of control stock solution (10 mM in dimethyl sulfoxide (DMSO)) were diluted with 90 μL of DMSO (intermediate solution concentration: 1 mM, 100% DMSO) • Species/Matrix: Human Plasma • No. of Individuals: 3 Male & 3 Female • Anticoagulant Used: Heparin
• The pooled frozen plasma was thawed in a water bath at 37° C. prior to experiment. Plasma was centrifuged at 4000 rpm for 5 min and the clots were removed if any. • Using an Apricot automation workstation, 98 μL/well of blank plasma were added to all 96-well reaction plates. (Blank, T0, T10, T30, T60 and T120) • An Apricot automation workstation was used to add 2 μL/well of working solution (100 μM) to all reaction plates except Blank. (T0, T10, T30, T60 and T120) • All reaction plates containing mixtures of compound and plasma were incubated at 37° C. in water bath. • The reaction plates were incubated at 37° C., and timer was started. • At the end of incubation, added 500 μL of stop solution (200 ng/mL tolbutamide and 200 ng/mL labetalol in ACN) to precipitate protein. Mixed thoroughly. • Each plate was sealed and shaken for 20 minutes. • After shaking, each plate was centrifuged at 4000 rpm and 4° C. for 20 minutes • After centrifugation, an Apricot automation workstation was used to transfer 50 μL supernatant into 100 μL HPLC water. • Each bioanalysis plate was sealed and shaken for 10 minutes prior to LC-MS/MS analysis Data Analysis • The % remaining of test compound after incubation in blood was calculated using following equation:
(§3) [formula] • where PAR is the peak area ratio of analyte versus internal standard (IS) • The appointed incubation time points are TO (0 min), Tn (n=0, 10, 30, 60 and 120 min)

[2] = Whole Blood Stability Assay (mouse whole blood); assay type: in vitro ADME; conditions: CD-1 mouse blood, EDTA-K2, final conc. 2 μM, 37° C., 0-120 min; for half-life at 2 μM: male, fresh whole blood, read-out: Mouse Whole Blood Stability t1/2
Method: Whole Blood Stability Assay
This Example illustrates that exemplary compounds of the present invention is cleavage in mouse whole blood.
as §1, §2
• Intermediate solution: 5 μL of compound stock solution (10 mM in dimethyl sulfoxide (DMSO)) were diluted with […] of DMSO (intermediate solution concentration: 1 mM, 100% DMSO) • Propantheline bromide (control) intermediate solution: 5 μL of propantheline stock solution (10 mM in ultra-pure water) were diluted with 45 μL of ultra-pure water (intermediate solution concentration: 1 mM) • Working solution 1: 20 μL of test compound intermediate solution (1 mM) were diluted with 180 μL of 45% ACN/H2O (working solution concentration: […], 40.5% ACN, 10% DMSO) • Working solution 2: 20 μL of control intermediate solution (1 mM) were diluted with 180 μL of 45% ACN/H2O (working solution concentration: 100 μM, 40.5% ACN, 10% DMSO) • Species/Matrix: CD-1 Mouse Blood • No. of Individuals: n>3 Male • Anticoagulant Used: EDTA-K2
• The fresh blood was collected on the day of experiment and pre-warmed in a water bath at 37° C. • Using an Apricot automation workstation, 98 μL/well of blank blood were added to all 96-well reaction plates (Blank, T0, T10, T30, T60 and T120). • An Apricot automation workstation was used to add 2 μL/well of working solution (100 μM) to all reaction plates except Blank (T0, T10, T30, T60 and T120). • All reaction plates containing mixtures of compound and blood were incubated at 37° C. in water bath. • The reaction plates were incubated at 37° C., and timer was started. • At the end of incubation, mixed 100 μL water with 100 μL spiked blood samples, then added 800 μL of stop solution (200 ng/mL tolbutamide and 200 ng/mL labetalol in ACN) to precipitate protein. Mixed thoroughly. • Each plate was sealed and shaken for 20 minutes. • After shaking, each plate was centrifuged at 4000 rpm and 4° C. for 20 minutes. • After centrifugation, an Apricot automation workstation was used to transfer 150 μL of supernatant from each reaction plate to its corresponding bioanalysis plate. • Each bioanalysis plate was submitted to LC-MS/MS analysis.
• The % remaining of test compound after incubation in blood was calculated using following equation:
as §3

SMILES | half-life at 2 μM [1] [min] | half-life at 2 μM [2] [min] | Mouse Whole Blood Stability t1/2 [2] [min]
CCc1c(F)ccc2cc(OCOC(=O)N(C)C)cc(N3CCc4c(nc(OC[C@@]56CCCN5C[C@H](F)C6)nc4N4CCC[C@]5(C4)NC(=O)NC5=O)C3)c12 [Example 52, ((4-(4-((R)-2,4-dioxo-1,3,7-triazaspiro[4.5]decan-7-yl)-2-(((2R,7aS)-2-fluorotetrahydro-1H-pyrrolizin-7a(5H)-yl)methoxy)-5,8-dihydropyrido[3,4-d]pyrimidin-7(6H)-yl)-5-ethyl-6-fluoronaphthalen-2-yl)oxy)methyl dimethylcarbamate] | > 289 | > 289 | –
CCCCCC(=O)Oc1cc(-c2ncc3c(N4C[C@@H]5C[C@H](C4)[C@H](O)C5)nc(OC[C@@]45CCCN4C[C@H](F)C5)nc3c2F)c2c(CC)c(F)ccc2c1 [Example 18, 5-ethyl-6-fluoro-4-(8-fluoro-2-(((2R,7aS)-2-fluorotetrahydro-1H-pyrrolizin-7a(5H)-yl)methoxy)-4-((1R,5R,6R)-6-hydroxy-3-azabicyclo[3.2.1]octan-3-yl)pyrido[4,3-d]pyrimidin-7-yl)naphthalen-2-yl hexanoate] | 44 | < 5 | –
CCCC(=O)Oc1cc(-c2ncc3c(N4C[C@@H]5C[C@H](C4)[C@H](O)C5)nc(OC[C@@]45CCCN4C[C@H](F)C5)nc3c2F)c2c(CC)c(F)ccc2c1 [Example 11, 5-ethyl-6-fluoro-4-(8-fluoro-2-(((2R,7aS)-2-fluorotetrahydro-1H-pyrrolizin-7a(5H)-yl)methoxy)-4-((1R,5R,6R)-6-hydroxy-3-azabicyclo[3.2.1]octan-3-yl)pyrido[4,3-d]pyrimidin-7-yl)naphthalen-2-yl butyrate] | 46 | < 5 | –
CCc1c(F)ccc2cc(OC(=O)C3CCCCC3)cc(N3CCc4c(nc(OC[C@@]56CCCN5C[C@H](F)C6)nc4N4CCC[C@]5(C4)NC(=O)NC5=O)C3)c12 [Example 47, 4-(4-((R)-2,4-dioxo-1,3,7-triazaspiro[4.5]decan-7-yl)-2-(((2R,7aS)-2-fluorotetrahydro-1H-pyrrolizin-7a(5H)-yl)methoxy)-5,8-dihydropyrido[3,4-d]pyrimidin-7(6H)-yl)-5-ethyl-6-fluoronaphthalen-2-yl cyclohexanecarboxylate] | 223 | 4 | –
CCCCCC(=O)Oc1cc(N2CCc3c(nc(OC[C@@]45CCCN4C[C@H](F)C5)nc3N3CCC[C@]4(C3)NC(=O)NC4=O)C2)c2c(CC)c(F)ccc2c1 [Example 44, 4-(4-((R)-2,4-dioxo-1,3,7-triazaspiro[4.5]decan-7-yl)-2-(((2R,7aS)-2-fluorotetrahydro-1H-pyrrolizin-7a(5H)-yl)methoxy)-5,8-dihydropyrido[3,4-d]pyrimidin-7(6H)-yl)-5-ethyl-6-fluoronaphthalen-2-yl hexanoate] | 142 | – | 1
CCc1c(F)ccc2cc(OC(=O)C3CCCCC3)cc(-c3ncc4c(N5C[C@@H]6C[C@H](C5)[C@H](O)C6)nc(OC[C@@]56CCCN5C[C@H](F)C6)nc4c3F)c12 [Example 21, 5-ethyl-6-fluoro-4-(8-fluoro-2-(((2R,7aS)-2-fluorotetrahydro-1H-pyrrolizin-7a(5H)-yl)methoxy)-4-((1R,5R,6R)-6-hydroxy-3-azabicyclo[3.2.1]octan-3-yl)pyrido[4,3-d]pyrimidin-7-yl)naphthalen-2-yl cyclohexanecarboxylate] | 41 | – | 1
CCc1c(F)ccc2cc(OC(=O)N(C)C)cc(N3CCc4c(nc(OC[C@@]56CCCN5C[C@H](F)C6)nc4N4CCC[C@]5(C4)NC(=O)NC5=O)C3)c12 [Example 35, 4-(4-((R)-2,4-dioxo-1,3,7-triazaspiro[4.5]decan-7-yl)-2-(((2R,7aS)-2-fluorotetrahydro-1H-pyrrolizin-7a(5H)-yl)methoxy)-5,8-dihydropyrido[3,4-d]pyrimidin-7(6H)-yl)-5-ethyl-6-fluoronaphthalen-2-yl dimethylcarbamate] | > 289 | > 289 | –
CCc1c(F)ccc2cc(OC(C)OC(=O)N(C)C)cc(-c3ncc4c(N5C[C@@H]6C[C@H](C5)[C@H](O)C6)nc(OC[C@@]56CCCN5C[C@H](F)C6)nc4c3F)c12 (stereo partly drawn) [Example 22, 1-((5-ethyl-6-fluoro-4-(8-fluoro-2-(((2R,7aS)-2-fluorotetrahydro-1H-pyrrolizin-7a(5H)-yl)methoxy)-4-((1R,5R,6R)-6-hydroxy-3-azabicyclo[3.2.1]octan-3-yl)pyrido[4,3-d]pyrimidin-7-yl)naphthalen-2-yl)oxy)ethyl dimethylcarbamate] | > 289 | > 289 | –
CCc1c(F)ccc2cc(OC(=O)C3CC3)cc(-c3ncc4c(N5C[C@@H]6C[C@H](C5)[C@H](O)C6)nc(OC[C@@]56CCCN5C[C@H](F)C6)nc4c3F)c12 [Example 4, 5-ethyl-6-fluoro-4-(8-fluoro-2-(((2R,7aS)-2-fluorotetrahydro-1H-pyrrolizin-7a(5H)-yl)methoxy)-4-((1R,5R,6R)-6-hydroxy-3-azabicyclo[3.2.1]octan-3-yl)pyrido[4,3-d]pyrimidin-7-yl)naphthalen-2-yl cyclopropanecarboxylate] | 17 | 5 | –
CCc1c(F)ccc2cc(OC(=O)C34CCC(CC3)CC4)cc(N3CCc4c(nc(OC[C@@]56CCCN5C[C@H](F)C6)nc4N4CCC[C@]5(C4)NC(=O)NC5=O)C3)c12 [Example 66, 4-(4-((R)-2,4-dioxo-1,3,7-triazaspiro[4.5]decan-7-yl)-2-(((2R,7aS)-2-fluorotetrahydro-1H-pyrrolizin-7a(5H)-yl)methoxy)-5,8-dihydropyrido[3,4-d]pyrimidin-7(6H)-yl)-5-ethyl-6-fluoronaphthalen-2-yl bicyclo[2.2.2]octane-1-carboxylate] | > 289 | 7 | –
CCc1c(F)ccc2cc(OC(=O)N3CCC[C@H](C)C3)cc(N3CCc4c(nc(OC[C@@]56CCCN5C[C@H](F)C6)nc4N4CCC[C@]5(C4)NC(=O)NC5=O)C3)c12 [Example 59, 4-(4-((R)-2,4-dioxo-1,3,7-triazaspiro[4.5]decan-7-yl)-2-(((2R,7aS)-2-fluorotetrahydro-1H-pyrrolizin-7a(5H)-yl)methoxy)-5,8-dihydropyrido[3,4-d]pyrimidin-7(6H)-yl)-5-ethyl-6-fluoronaphthalen-2-yl (S)-3-methylpiperidine-1-carboxylate] | > 289 | > 289 | –
CCc1c(F)ccc2cc(OC(=O)N3CCCC[C@@H]3C)cc(N3CCc4c(nc(OC[C@@]56CCCN5C[C@H](F)C6)nc4N4CCC[C@]5(C4)NC(=O)NC5=O)C3)c12 [Example 55, 4-(4-((R)-2,4-dioxo-1,3,7-triazaspiro[4.5]decan-7-yl)-2-(((2R,7aS)-2-fluorotetrahydro-1H-pyrrolizin-7a(5H)-yl)methoxy)-5,8-dihydropyrido[3,4-d]pyrimidin-7(6H)-yl)-5-ethyl-6-fluoronaphthalen-2-yl(S)-2-methylpiperidine-1-carboxylate] | > 289 | > 289 | –
